Assays:
[1] = tested on: harmaline-induced motor impairment in male SD rats; test: Wire grip test with harmaline in SD rats; assay type: in vivo, rat; settings: harmaline 30 mg/kg, dose of 1, 3 and 10 mg/kg
Source text: (§1) Each of six groups of male SD rats were subjected to a tremor assessment, followed by three ADL-like measures including open field test, rotarod test, and wire grip test after receiving doses of either vehicle, Formula (I), or propranolol, followed by either saline or harmaline, as outlined below in Table 22 below.
Fifteen minutes after the rotarod test, rats were subjected to a wire grip test using an 80 cm long and 7 mm in diameter wire placed at a height of 50 cm.

[2] = tested on: harmaline-induced motor impairment in male SD rats; test: Rotarod test with harmaline in SD rats; assay type: in vivo, rat; settings: harmaline 30 mg/kg, dose of 3 and 10 mg/kg
Procedure: as §1
Fifteen minutes after the open field test, the rats were subjected to a rotarod test. The speed of the rotarod increased from 10 rpms to 60 rpms within the first five minutes of the test. FIG. 9 is a bar graph showing the mean of latency to fall in the rotarod test measured in rats that were administered 30 mg/kg harmaline and also administered 10 mg/kg propranolol or 1 mg/kg, 3 mg/kg or 10 mg/kg study drug.

[3] = tested on: participants with ET; test: Phase 2 trial: Clinical Global Impression-Improvement (CGI-I); assay type: in vivo, human
Source text: The Clinical Global Impression-Improvement (CGI-I) (Guy 1976) assesses the clinician's impression of the participant's functioning prior to and after initiating study medication. The clinician should use his/her total clinical experience with this patient population and rate the current severity of the participant's essential tremor symptoms on a 7-point scale from 1 (Normal, not at all ill) to 7 (Among the most extremely ill patients). Accordingly, in some embodiments, the methods of the present invention result in a decrease in CGI-I score compared to baseline, e.g., prior to treatment. Key safety measures included clinical laboratory evaluations, 12-lead ECG, C-SSRS, and vital signs. Key efficacy assessments included the TETRAS Performance subscale, TETRAS Upper Limb using accelerometry, CGI, and PGI-C. Blood samples were obtained for the determination of study drug plasma concentrations using a validated bioanalytical method and may also be used for method development and/or metabolite characterization. In both phases, key safety measures included clinical laboratory evaluations, 12-lead ECG, C-SSRS, and vital signs. Key efficacy assessments included the TETRAS Performance subscale, TETRAS Upper Limb using accelerometry, CGI, PGI-C, TETRAS ADL Subscale, QUEST, BDI-II, and BAI. Blood samples were obtained for the determination of study drug and metabolite plasma concentrations.

[4] = listed as compound of Formula (I)

With `CC(C)(C)NC(=O)CN1CCC(CNC(=O)c2cc(F)cc(Cl)c2)CC1.Cl` [Study drug] the “latency to fall in wire grip test vs vehicle and harmaline only” value ([1]; listed as Formula (I)) was “significantly attenuated”, the “latency to fall in wire grip test vs vehicle and harmaline only” value [1, 4] was “significantly attenuated decrease in fall off latency” and the “latency to fall in rotarod test vs vehicle and harmaline only” value ([2]; listed as Formula (I)) was “significantly attenuated”. For the same compound, the “latency to fall in rotarod test vs vehicle and harmaline only” value [2, 4] was “significant attenuation of motor impairment”, the “CGI-I Score 5 minimally worse” value ([3]; Part B OLT (FAS), Day 7, n = 12) was 1 n (%) and the “CGI-I Score 5 minimally worse” value ([3]; Part B RWD (RWAS), Day 70, study drug group, n = 5, vs randomization baseline) was 1 n (%).

From patent publication US20250170114A1, “METHODS OF TREATMENT USING T-TYPE CALCIUM CHANNEL MODULATORS” (Praxis Precision Medicines, Inc., priority 2022, published 2025)
